According to patent publication US20110152345A1, “EBI3, DLX5, NPTX1 AND CDKN3 FOR TARGET GENES OF LUNG CANCER THERAPY AND DIAGNOSIS” (Oncotherapy Science, Inc., priority 2007, published 2011):

Columns and labels:
LC319 cells = assay: MTT assay of LC319 cells treated with cell-permeable 11R-EF-1delta peptides; assay type: cell-based, human; conditions: peptide 2.5, 5.0 and 7.5 micro M for 5 days
Description: 19-amino acid peptide sequence corresponding to a part of EF-1delta protein that contained possible binding sites of CDKN3 were covalently linked at its NH2-terminus to a membrane transducing 11 poly-arginine sequence (11R; refs. Futaki et al., Hayama et al., 2006, 2007). Five cell permeable peptides were synthesized: 11R-EF-1delta73-91, RRRRRRRRRRR-GGG-TSGDHGELVVRIASLEVEN; 11R-EF-1delta90-108, RRRRRRRRRRR-GGG-ENQSLRGVVQELQQAISKL; 11R-EF-1delta108-126, RRRRRRRRRRR-GGG-LEARLNVLEKSSPGHRATA; 11R-EF-1delta125-143, RRRRRRRRRRR-GGG-TAPQTQHVSPMRQVEPPAK; 11R-EF-1delta142-160, RRRRRRRRRRR-GGG-AKKPATPAEDDEDDDIDLF. Peptides were purified by preparative reverse-phase high-pressure liquid chromatography. LC319 cells were incubated with the 11R peptides at the concentration of 2.5, 5.0 and 7.5 micro M for 5 days. The medium was changed at every 48 hours at the appropriate concentrations of each peptide and the viability of cells was evaluated by MTT assay at 5 days after the treatment. 12. Immunoprecipitation and MALDI-TOF-MS mapping of CDKN3-Associated Proteins.

CDKN3 and EF-1delta = target: T1, CDKN3 and EF-1delta (Homo sapiens, UniProt Q16667); assay: Immunoprecipitation of endogenous CDKN3 and EF-1delta complex in peptide-treated LC319 cells; assay type: cell-based; conditions: peptide added to culture medium
T1 construct: between endogenous CDKN3 and EF-1delta proteins in LC319 cells; endogenous in cells; host or cells: LC319 (human lung adenocarcinoma cell line)
T1 sequence (Q16667 1-212): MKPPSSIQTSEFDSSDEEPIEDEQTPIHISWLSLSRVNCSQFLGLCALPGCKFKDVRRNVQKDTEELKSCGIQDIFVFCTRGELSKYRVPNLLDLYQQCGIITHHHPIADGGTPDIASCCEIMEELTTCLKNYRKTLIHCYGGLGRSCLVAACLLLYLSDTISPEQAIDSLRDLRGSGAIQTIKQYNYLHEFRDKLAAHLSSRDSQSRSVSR
Description: FIG. 24: Identifies the CDKN3-binding region in EF-1delta. Part A presents a schematic drawing of five cell permeable peptides linked covalently at its NH2-terminus to a membrane transducing 11 poly-arginine sequence. The sequence of leucine zipper motif in EF-1delta and five cell permeable peptides derived from EF-1delta are shown. Part B presents the viability of LC319 cells evaluated by MTT assay in response to five cell permeable peptides (upper panel). Reduction of the complex formation detected by immunoprecipitation between endogenous CDKN3 and EF-1delta proteins in LC319 cells that were treated with the 11R-EF-1delta90-108 peptides (lower panel).
Then, to investigate the functional significance of interaction between CDKN3 and EF-1delta for growth or survival of lung-cancer cells, bioactive cell-permeable peptides expected to inhibit the binding of these two proteins were developed. Next 5 different peptides of 19 amino acid sequence that included in codons 73-160 of EF-1delta were synthesized (FIG. 24A). These peptides were covalently linked at NH2-terminalus to a membrane transducing 11 arginine-residues (11R).

RRRRRRRRRRR-GGG-ENQSLRGVVQELQQAISKL (RRRRRRRRRRRGGGENQSLRGVVQELQQAISKL) [11R-EF-1delta90-108]
cell viability (MTT assay) (LC319 cells): significant decreases
complex formation between endogenous CDKN3 and EF-1delta (CDKN3 and EF-1delta): reduced complex formation
